Assays:
Type in all cases: in vivo
[1] = test system: Alopecurus myosuroides (ALOMY); test: Pre-emergence biological efficacy, glasshouse pot test; conditions: 312 h, 1,000 g/ha, evaluated after 13 days, 100=total damage, 0=no damage, read-out: Percentage damage caused to weed species, pre-emergence, ALOMY
Experimental: (§1) Seeds of Alopecurus myosuroides (ALOMY), Setaria faberi (SETFA), Echinochloa crus-galli (ECHCG), Solanum nigrum (SOLNI), Amaranthus retroflexus (AMARE) and Ipomea hederaceae (IPOHE) were sown in standard soil in pots. After cultivation for one day under controlled conditions in a glasshouse (at 24/16° C., day/night; 14 hours light; 65% humidity), the plants were sprayed with an aqueous spray solution derived from the formulation of the technical active ingredient in acetone/water (50:50) solution containing 0.5% Tween 20 (polyoxyethylene sorbitan monolaurate, CAS RN 9005-64-5) to give a final dose of 1000 or 250 g/ha of test compound. The test plants were then grown under controlled conditions in the glasshouse (at 24/16° C., day/night; 14 hours light; 65% humidity) and watered twice daily. After 13 days the test was evaluated (100=total damage to plant; 0=no damage to plant).

[2] = test system: Amaranthus retroflexus (AMARE); test: as above; conditions: 312 h, 1,000 g/ha, evaluated after 13 days, 100=total damage, 0=no damage, read-out: Percentage damage caused to weed species, pre-emergence, AMARE
Experimental: as §1

[3] = test system: Echinochloa crus-galli (ECHCG); test: as above; conditions: 312 h, 1,000 g/ha, evaluated after 13 days, 100=total damage, 0=no damage, read-out: Percentage damage caused to weed species, pre-emergence, ECHCG
Experimental: as §1

[4] = test system: Ipomea hederaceae (IPOHE); test: as above; conditions: Ipomoea hederacea, 312 h, 1,000 g/ha, evaluated after 13 days, 100=total damage, 0=no damage, read-out: Percentage damage caused to weed species, pre-emergence, IPOHE
Experimental: as §1

Setaria faberi (SETFA) [5] = test: as above; conditions: 312 h, 1,000 g/ha, evaluated after 13 days, 100=total damage, 0=no damage, read-out: Percentage damage caused to weed species, pre-emergence, SETFA
Experimental: as §1

Solanum nigrum (SOLNI) [6] = test: as above; conditions: 312 h, 1,000 g/ha, evaluated after 13 days, 100=total damage, 0=no damage, read-out: Percentage damage caused to weed species, pre-emergence, SOLNI
Experimental: as §1

[7] = test system: Alopecurus myosuroides (ALOMY); test: Post-emergence biological efficacy, glasshouse pot test; conditions: 312 h, 1,000 g/ha, evaluated after 13 days, 100=total damage, 0=no damage, read-out: Percentage damage caused to weed species, post-emergence, ALOMY
Experimental: as §1, with “for 8 days” for “for one day”, “grown on” for “grown”, “in a” for “in the”

[8] = test system: Amaranthus retroflexus (AMARE); test: as above; conditions: 312 h, 1,000 g/ha, evaluated after 13 days, 100=total damage, 0=no damage, read-out: Percentage damage caused to weed species, post-emergence, AMARE
Experimental: as §1, with “for 8 days” for “for one day”, “grown on” for “grown”, “in a” for “in the”

[9] = test system: Echinochloa crus-galli (ECHCG); test: as above; conditions: 312 h, 1,000 g/ha, evaluated after 13 days, 100=total damage, 0=no damage, read-out: Percentage damage caused to weed species, post-emergence, ECHCG
Experimental: as §1, with “for 8 days” for “for one day”, “grown on” for “grown”, “in a” for “in the”

[10] = test system: Ipomea hederaceae (IPOHE); test: as above; conditions: Ipomoea hederacea, 312 h, 1,000 g/ha, evaluated after 13 days, 100=total damage, 0=no damage, read-out: Percentage damage caused to weed species, post-emergence, IPOHE
Experimental: as §1, with “for 8 days” for “for one day”, “grown on” for “grown”, “in a” for “in the”

Setaria faberi (SETFA) [11] = test: as above; conditions: 312 h, 1,000 g/ha, evaluated after 13 days, 100=total damage, 0=no damage, read-out: Percentage damage caused to weed species, post-emergence, SETFA
Experimental: as §1, with “for 8 days” for “for one day”, “grown on” for “grown”, “in a” for “in the”

Solanum nigrum (SOLNI) [12] = test: as above; conditions: 312 h, 1,000 g/ha, evaluated after 13 days, 100=total damage, 0=no damage, read-out: Percentage damage caused to weed species, post-emergence, SOLNI
Experimental: as §1, with “for 8 days” for “for one day”, “grown on” for “grown”, “in a” for “in the”

| Compound | pest or weed control at 1000 g/ha [1] | pest or weed control at 1000 g/ha [2] | pest or weed control at 1000 g/ha [3] | pest or weed control at 1000 g/ha [4] | pest or weed control at 1000 g/ha (Setaria faberi (SETFA) [5]) | pest or weed control at 1000 g/ha (Solanum nigrum (SOLNI) [6]) | pest or weed control at 1000 g/ha [7] | pest or weed control at 1000 g/ha [8] | pest or weed control at 1000 g/ha [9] | pest or weed control at 1000 g/ha [10] | pest or weed control at 1000 g/ha (Setaria faberi (SETFA) [11]) | pest or weed control at 1000 g/ha (Solanum nigrum (SOLNI) [12]) |
| --- | --- | --- | --- | --- | --- | --- | --- | --- | --- | --- | --- | --- |
| C=Cc1c(NCc2ccccc2C)cc(Cl)nc1C(=O)OC [Compound 9-12, 6-Chloro-3-ethenyl-4-[(2-methylphenyl-methyl)-amino]-pyridine-2-carboxylic acid methyl ester] | 10% | 90% | 10% | 60% | 0% | 100% | 40% | 100% | 50% | 40% | 50% | 80% |
| C=Cc1c(NCc2ccc(N(C)C)cc2)cc(Cl)nc1C(=O)OC [Compound 14-12, 6-Chloro-4-[(4-dimethylamino-phenylmethyl)-amino]-3-ethenyl-pyridine-2-carboxylic acid methyl ester] | 80% | 100% | 30% | 100% | 80% | 100% | 60% | 100% | 50% | 50% | 80% | 90% |
| COC(=O)c1nc(Cl)cc(NCc2ccccc2[N+](=O)[O-])c1Cl [Compound 15-2, 3,6-Dichloro-4-[(2-nitrophenylmethyl)-amino]-pyridine-2-carboxylic acid methyl ester] | 90% | 100% | 80% | 100% | 90% | 100% | 70% | 100% | 70% | 90% | 90% | 100% |
| C=Cc1c(NCc2ccccc2[N+](=O)[O-])cc(Cl)nc1C(=O)OC [Compound 15-12, 6-Chloro-3-ethenyl-4-[(2-nitrophenylmeth-yl)-amino]-pyridine-2-carboxylic acid methyl ester] | 70% | 100% | 90% | 100% | 80% | 100% | 80% | 100% | 70% | 60% | 100% | 90% |
| COC(=O)c1nc(Cl)cc(NCc2ccccc2[N+](=O)[O-])c1Br [Compound 15-17, 3-Bromo-6-chloro-4-[(2-nitrophenylmethyl)-amino]-pyridine-2-carboxylic acid methyl ester] | 40% | 100% | 20% | 90% | 60% | 90% | 50% | 80% | 30% | 80% | 80% | 90% |
| C=Cc1c(C(=O)OC)nc(Cl)c(F)c1NCc1ccccc1[N+](=O)[O-] [Compound 15-27, 6-Chloro-3-ethenyl-5-fluoro-4-[(2-nitrophenylmeth-yl)amino]-pyridine-2-carboxylic acid methyl ester] | 90% | 100% | 90% | 90% | 90% | 100% | 70% | 100% | 70% | 90% | 90% | 100% |
| COC(=O)c1nc(Cl)c(F)c(NCc2ccccc2[N+](=O)[O-])c1Br [Compound 15-29, 3-bromo-6-chloro-5-fluoro-4-[(2-nitrophenyl-methyl)-amino]-pyridine-2-carboxylic acid methyl ester] | 90% | 90% | 70% | 100% | 40% | 90% | 50% | 100% | 50% | 70% | 80% | 100% |
| COC(=O)c1nc(Cl)c(F)c(NCc2ccccc2[N+](=O)[O-])c1C [Compound 15-31, 6-Chloro-5-fluoro-3-methyl-4-[(2-nitrophenyl-methyl)-amino]-pyridine-2-carboxylic acid methyl ester] | 20% | 100% | 20% | 70% | 20% | 90% | 20% | 100% | 50% | 70% | 80% | 100% |
| C=Cc1c(C(=O)OC)nc(Cl)c(Cl)c1NCc1ccccc1[N+](=O)[O-] [Compound 15-39, 5,6-Dichloro-3-ethenyl-4-[(2-nitrophenylmeth-yl)-amino]-pyridine-2-carboxylic acid methyl ester] | 30% | 100% | 80% | 90% | 40% | 100% | 60% | 100% | 60% | 90% | 80% | 100% |
| COC(=O)c1nc(Cl)c(Cl)c(NCc2ccccc2[N+](=O)[O-])c1Br [Compound 15-41, 3-bromo-5,6-dichloro-4-[(2-nitrophenyl-methyl)-amino]-pyridine-2-carboxylic acid methyl ester] | 20% | 100% | 40% | 100% | 30% | 80% | 10% | 100% | 0% | 80% | 70% | 100% |

From US20120100990A1, “4 -AMINOPICOLINATES AND THEIR USE AS HERBICIDES” (SYNGENTA CROP PROTECTION LLC, priority 2009, published 2012)
